In US4980349A, “Sulphonamides derived from diarylmethanes, the processes for preparing them and pharmaceutical compositions containing them” (SANOFI, priority 1986, dated 1990):
Like-named read-outs stand apart in the source and are kept apart here.

Experiments:
[1] = tested on: rat hind foot kaolin-induced oedema; assay: Kaolin-induced arthritis test, first experiment (decrease in inflammation, foot volume); format: in vivo; conditions: 1 h before kaolin, Table IX, read-out: percentage decrease in the inflammation; for change in vivo at 25 mg/kg: 25 mg/kg oral; for change in vivo at 50 mg/kg: 50 mg/kg oral; for change in vivo at 100 mg/kg: 100 mg/kg oral
Procedure: The […] of 0.05 ml of a sterile 10% strength suspension of kaolin into the metatarsal flexor sheath of the hind foot of a rat initially induces an oedematous reaction. An inflammatory arthritis then forms.
The early oedematous reaction appears from the first hour, and reaches its maximum between the fourth hour and the sixth hour. This is the manifestation of interest. The assessment of the volume of the foot enables the action of substances on the oedematous reaction to be studied. The measurements are carried out using a Giono and Chevilard plethysmometer.
The test products are administered orally (stomach tube) one hour before the injection of the kaolin.
The results are expressed as a percentage decrease in the inflammation in the treated animals compared with a control series of animals.
The batches are of 10 animals per dose and 10 control animals.
The figures shown represent the mean of 10 animals.

[2] = tested on: rat hind foot carragheenin-induced oedema; assay: Carragheenin-induced oedema test; format: in vivo; conditions: 3 h, first experiment, Table X, read-out: percentage inhibition of the inflammation; for change in vivo at 25 mg/kg: 25 mg/kg oral; for change in vivo at 50 mg/kg: 50 mg/kg oral; for change in vivo at 100 mg/kg: 100 mg/kg oral
Procedure: In this test, 10 rats are used per test compound of the invention. Control batches of 10 rats also receive either the comparative compound (ketoprofen) or exclusively an NaCl solution.
The compounds of the invention are administered orally (stomach tube) one hour before the injection of carragheenin.
The carragheenin is suspended at a concentration of 1% in a 0.9% isotonic sodium chloride solution. The volume injected into the rat's foot is 0.20 ml.
The volume of the foot is measured before the injection and 3 hours later. The antagonistic effect of the products towards carragheenin is reflected in the inhibition of the volume of the oedema compared with control rats. The latter receive only isotonic NaCl solution under identical conditions.

[3] = tested on: foreign-body (sponge) granuloma in rats; assay: Experimental granuloma induced by foreign body, histological study; format: in vivo, Wistar rats; conditions: 8 days, Table XI
Procedure: This test consists in studying the subacute cellular phase which is developed in the 8 days which follow the implantation of a foreign body, a sponge of non-resorbable plastic, in the dorsal subcutaneous connective tissue in rats.
The granulomas formed are removed 8 days after the implantation; a histological study is carried out after fixing the tissue and staining sections with hematein/ eosin. The observation is more especially concerned with the cell population of the primary phase of the formation of the granulation tissue: the reticulohistocytic cells, lymphocytes and more especially the macrophages.
The animals used are Wistar rats weighing 120-140 g and of the same origin, maintained under the same conditions of housing throughout the treatment (8 days).
The compounds of the invention are administered orally, in a gum suspension, in the morning in a fasted state, using an oesophageal tube.
After 8 days of treatment, the rats are sacrificed by decapitation and the granulomas removed and prepared for the purpose of histological examination.
The experiment conditions are as follows:
The animals are distributed in batches of 10;
Each test product is administered at 2 doses, of 50 and 100 mg, respectively, to 2 batches of 10 animals;
Ketoprofen is used by way of reference product at the same 2 doses and under the same conditions; and
A batch of 10 control animals receives no treatment.
In this experiment, on the one hand a histological study of the granulomas is performed by sampling on day 8 (results recorded in Table XIa), and on the other hand a study of the weight of the granulomas was performed 10 days after the implantation (results recorded in Table XIb).

[4] = tested on: pain threshold of brewer's yeast inflamed rat hind foot; assay: Randall and Sellitto's test (analgesic activity); format: in vivo
Procedure: Inflammation increases the sensitivity to pain, in particular to pressure, and analgesics raise the threshold of the sensitivity.
The inflammation is obtained by injecting 0.1 ml of a 20% strength aqueous suspension of brewer's yeast under the plantar aponeurosis of one of the hind feet. […] The pain threshold is assessed in terms of the force necessary and sufficient to initiate a characteristic reaction of withdrawing the foot.
The sensitivity to pain of the inflamed foot reaches a plateau 4 hours after the injection of the brewer's yeast, and then remains stable until the 6th hour. The pain threshold of the inflamed foot in control rats weighing 140 g is reached for pressures of 50 to 60 g, whereas it is around 160 g for the intact foot.
The action of the substance administered orally to series of 10 rats is expressed in terms of the percentage increase in the mean pain threshold, compared with that measured in the rats of a control series of 10 animals which have not received a compound of the invention.
The test products are administered orally (stomach tube) one hour before the injection of brewer's yeast.
The comparative compound used is ketoprofen.

[5] = tested on: biosynthesis of leukotrienes B4 (LTB4), human polymorphonuclear leukocytes; assay: Biosynthesis of LTB4, isomers and oxidized metabolites in human polymorphonuclear leukocytes; format: cell-based; conditions: Leukocyte, first experiment
Procedure: Polymorphonuclear leukocytes are isolated from human blood and used during the 6 hours following the withdrawal. The viability of the cells is checked by trypan blue exclusion.
5×10^6 cells are incubated for 10 minutes at 37° C. in the presence of the test product dissolved in DMSO, and are stimulated with ionophore A 23187 (Galbiochem, 10 μM) in PBS buffer at pH 7.4, Ca^2+ and Mg^2+ =1 μM.
100 ng of prostaglandin B2 (PGB2), dissolved in methanol, are added at the end of the reaction to act as an internal standard.
On centrifugation, the culture supernatant is withdrawn. The latter is retrieved under argon and stored at -80° C. until analysed by HPLC.
This analysis is carried out by injecting 250 μl onto a 5 μm ODS ultrasphere column (Beckmann), with a gradient of acetonitrile (20-80%) in water, at pH 7.4.
The amounts of the different products which absorb at 269 nm, i.e. leukotrienes B4 (LTB4), isomers of LTB4 and oxidized metabolites of LTB4, are estimated by comparison with the internal standard.
The test product is used at a concentration of 40 μM.
They are expressed either as a percentage inhibition, or as a percentage increase in the production of LTB4, isomers of LTB4 and oxidized metabolites of LTB4 (designated by +).
The experimental model is the same as that described in Section 2.1. Other products are tested by comparison with the compound of the invention no. 1574, used as a control.

[6] = both doses (50 and 100 mg/kg) oral
[7] = 25 mg/kg oral, first experiment, Table XII, read-out: percentage increase in the mean pain threshold
[8] = 50 mg/kg oral, first experiment, Table XII, read-out: percentage increase in the mean pain threshold
[9] = 100 mg/kg oral, first experiment, Table XII, read-out: percentage increase in the mean pain threshold
[10] = read-out: Isomers of LTB4: percentage inhibition (+ : percentage increase in the production)
[11] = read-out: LTB4: percentage inhibition (+ : percentage increase in the production)
[12] = read-out: Oxidized metabolites of LTB4: percentage inhibition (+ : percentage increase in the production)

SMILES | change in vivo at 25 mg/kg [1] [%] | change in vivo at 50 mg/kg [1] [%] | change in vivo at 100 mg/kg [1] [%] | change in vivo at 25 mg/kg [2] [%] | change in vivo at 50 mg/kg [2] [%] | change in vivo at 100 mg/kg [2] [%] | histological study of the granuloma [3, 6] | change in vivo at 25 mg/kg [4, 7] [%] | change in vivo at 50 mg/kg [4, 8] [%] | change in vivo at 100 mg/kg [4, 9] [%] | inhibition at 40 µM [5, 10] [%] | inhibition at 40 µM [5, 11] [%] | inhibition at 40 µM [5, 12] [%] | other results
O=C(c1ccc(Cl)cc1)c1ccccc1S(=O)(=O)NCCCN1CCOCC1 [Compound 1410] | -18 | -32 | -57 | -15 | -25 | -48 | inflammatory reaction is attenuated | 19 | 37 | 58 |  |  |  | 
O=C(O)CCCCCNS(=O)(=O)c1ccc(Cl)cc1C(=O)c1ccccc1Cl [Compound 1570] | -10 | -25 | -52 | -20 | -29 | -40 |  | 15 | 25 | 53 |  |  |  | histological study of the granuloma ([3]; 50 mg/kg oral): anti-inflammatory activity is exhibited; histological study of the granuloma ([3]; 100 mg/kg oral): distinct
O=C(O)CCCCCCCCCCCNS(=O)(=O)c1ccc(C(=O)c2ccccc2)cc1 [Compound 1687] | -23 | -28 | -50 | -25 | -30 | -48 |  | 25 | 35 | 50 | 0 | 16 | -30 | 
O=C(O)CCCCCCCCCCNS(=O)(=O)c1cccc(C(=O)c2cc(S(=O)(=O)NCCCCCCCCCCC(=O)O)ccc2Cl)c1 [Compound 1688] | -25 | -28 | -48 | -25 | -32 | -50 |  | 25 | 32 | 50 | -35 | 35 | 20 | 
CC(C(=O)O)c1cccc(C(=O)c2ccccc2)c1 (stereo not shown) [Ketoprofen, ketoprofen, reference compound] | -30 | -51 | -73 |  |  |  | very substantial decrease |  |  |  |  |  |  | change in vivo at 25 mg/kg ([2]; po): -25%; change in vivo at 50 mg/kg ([2]; po): -45%; change in vivo at 100 mg/kg ([2]; po): -65%; change in vivo at 25 mg/kg ([4]; po, read-out: percentage increase in the mean pain threshold, 25 mg/kg oral, first experiment, Table XII): 22%; change in vivo at 25 mg/kg ([4]; po, read-out: percentage increase in the mean pain threshold, 25 mg/kg oral, second experiment, Table XIIa): 50%; change in vivo at 50 mg/kg ([4]; po, read-out: percentage increase in the mean pain threshold, 50 mg/kg oral, first experiment, Table XII): 55%; change in vivo at 50 mg/kg ([4]; po, read-out: percentage increase in the mean pain threshold, 50 mg/kg oral, second experiment, Table XIIa): 55%; change in vivo at 100 mg/kg ([4]; po, read-out: percentage increase in the mean pain threshold, 100 mg/kg oral, first experiment, Table XII): 78%; change in vivo at 100 mg/kg ([4]; po, read-out: percentage increase in the mean pain threshold, 100 mg/kg oral, second experiment, Table XIIa): 58%
